Test results as given in patent US11208412B2 (DAEGU-GYEONGBUK MEDICAL INNOVATION FOUNDATION, priority 2017, dated 2021).

How the values were obtained:
Experiment in all cases: Kinase selectivity, DiscoverX scanMAX Kinase assay panel (% control)
Format in all cases: binding
[1] = molecular target: T1, kinases of the scanMAX Kinase assay panel (Homo sapiens, UniProt Q12866); conditions: MERTK; 1 uM
T1 construct: purchased DiscoverX Co. (contract measurement) scanMAX Kinase assay panel
T1 sequence (Q12866 21-999): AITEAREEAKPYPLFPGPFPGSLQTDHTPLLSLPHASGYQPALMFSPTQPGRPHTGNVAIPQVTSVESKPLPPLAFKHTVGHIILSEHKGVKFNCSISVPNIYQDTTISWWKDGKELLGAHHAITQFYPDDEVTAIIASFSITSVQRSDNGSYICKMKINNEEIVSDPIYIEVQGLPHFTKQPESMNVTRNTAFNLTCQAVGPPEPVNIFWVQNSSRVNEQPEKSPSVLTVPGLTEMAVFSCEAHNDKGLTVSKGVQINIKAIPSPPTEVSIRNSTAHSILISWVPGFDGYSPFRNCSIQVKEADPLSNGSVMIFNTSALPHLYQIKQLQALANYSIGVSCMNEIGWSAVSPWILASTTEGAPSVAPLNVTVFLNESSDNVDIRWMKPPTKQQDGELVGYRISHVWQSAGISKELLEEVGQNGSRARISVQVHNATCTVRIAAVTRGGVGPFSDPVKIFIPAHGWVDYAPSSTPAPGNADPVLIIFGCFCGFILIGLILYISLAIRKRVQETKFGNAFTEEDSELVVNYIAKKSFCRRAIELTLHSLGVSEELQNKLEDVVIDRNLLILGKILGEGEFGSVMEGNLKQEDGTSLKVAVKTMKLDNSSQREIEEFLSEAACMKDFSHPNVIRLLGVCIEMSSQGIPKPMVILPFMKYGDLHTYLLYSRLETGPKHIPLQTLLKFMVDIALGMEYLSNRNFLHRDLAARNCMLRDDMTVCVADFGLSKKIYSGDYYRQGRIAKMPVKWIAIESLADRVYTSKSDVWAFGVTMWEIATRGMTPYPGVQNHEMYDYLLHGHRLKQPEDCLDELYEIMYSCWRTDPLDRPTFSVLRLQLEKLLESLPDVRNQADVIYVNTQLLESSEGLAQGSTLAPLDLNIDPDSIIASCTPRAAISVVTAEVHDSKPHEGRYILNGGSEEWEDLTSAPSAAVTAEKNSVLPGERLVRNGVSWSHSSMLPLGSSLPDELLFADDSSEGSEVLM
Outline: (§1)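 Read-out is % control, normalised so a positive-control compound sits at 0% and DMSO at 100%: (test − positive)/(negative − positive)×100. Each kinase received the compound at 1 uM in DMSO. A value below 35% counts as activity.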

[2] = molecular target: T2, kinases of the scanMAX Kinase assay panel (Homo sapiens, UniProt P20794); conditions: MAK; 1 uM
T2 construct: purchased DiscoverX Co. (contract measurement) scanMAX Kinase assay panel
T2 sequence (P20794 1-623): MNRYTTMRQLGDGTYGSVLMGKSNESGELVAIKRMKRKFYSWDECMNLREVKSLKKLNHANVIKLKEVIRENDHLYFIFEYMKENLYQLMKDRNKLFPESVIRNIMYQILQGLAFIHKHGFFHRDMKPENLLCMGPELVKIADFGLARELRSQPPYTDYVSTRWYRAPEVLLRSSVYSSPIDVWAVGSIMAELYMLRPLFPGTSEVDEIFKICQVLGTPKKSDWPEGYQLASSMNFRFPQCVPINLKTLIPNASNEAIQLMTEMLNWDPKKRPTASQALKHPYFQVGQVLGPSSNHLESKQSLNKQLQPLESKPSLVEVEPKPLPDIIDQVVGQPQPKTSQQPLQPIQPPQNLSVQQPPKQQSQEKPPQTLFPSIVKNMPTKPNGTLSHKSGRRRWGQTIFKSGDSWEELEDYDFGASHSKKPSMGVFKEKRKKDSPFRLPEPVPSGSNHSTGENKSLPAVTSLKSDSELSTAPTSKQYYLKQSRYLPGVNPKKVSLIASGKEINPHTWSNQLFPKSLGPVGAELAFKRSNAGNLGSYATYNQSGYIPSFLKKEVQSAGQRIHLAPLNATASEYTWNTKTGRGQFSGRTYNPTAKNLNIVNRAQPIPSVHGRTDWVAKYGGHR
Outline: as §1

[3] = molecular target: T3, kinases of the scanMAX Kinase assay panel (Homo sapiens, UniProt O00506); conditions: kinase YSK1; 1 uM in DMSO
T3 construct: purchased DiscoverX Co. (contract measurement) scanMAX Kinase assay panel
Outline: as §1

[4] = molecular target: T4, kinases of the scanMAX Kinase assay panel (Homo sapiens, UniProt P42679); conditions: CTK; 1 uM
T4 construct: purchased DiscoverX Co. (contract measurement) scanMAX Kinase assay panel
T4 sequence (P42679 1-507): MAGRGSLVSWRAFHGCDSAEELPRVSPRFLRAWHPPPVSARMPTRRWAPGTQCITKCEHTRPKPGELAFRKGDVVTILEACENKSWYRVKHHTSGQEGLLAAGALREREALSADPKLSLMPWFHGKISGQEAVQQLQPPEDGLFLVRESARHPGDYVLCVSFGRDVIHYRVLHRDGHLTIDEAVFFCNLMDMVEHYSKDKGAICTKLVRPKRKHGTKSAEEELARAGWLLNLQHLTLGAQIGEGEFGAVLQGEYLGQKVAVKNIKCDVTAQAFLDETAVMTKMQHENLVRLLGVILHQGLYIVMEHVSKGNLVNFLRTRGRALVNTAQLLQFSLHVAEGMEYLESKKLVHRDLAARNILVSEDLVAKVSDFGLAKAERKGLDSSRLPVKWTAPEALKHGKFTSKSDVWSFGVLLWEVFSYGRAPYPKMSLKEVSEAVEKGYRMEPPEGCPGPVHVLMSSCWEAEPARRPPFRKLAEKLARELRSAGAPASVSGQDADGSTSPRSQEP
Outline: as §1

[5] = molecular target: T5, kinases of the scanMAX Kinase assay panel (Homo sapiens, UniProt Q13705); conditions: ACVR2B; 1 uM
T5 construct: purchased DiscoverX Co. (contract measurement) scanMAX Kinase assay panel
Outline: as §1

[6] = molecular target: T6, kinases of the scanMAX Kinase assay panel (Homo sapiens, UniProt P00519, Y253F); conditions: ABL1(Y253F)-phosphorylated; 1 uM
T6 construct: purchased DiscoverX Co. (contract measurement) scanMAX Kinase assay panel
Outline: as §1

[7] = molecular target: T7, kinases of the scanMAX Kinase assay panel (Homo sapiens, UniProt Q13627); conditions: DYRK1A; 1 uM
T7 construct: purchased DiscoverX Co. (contract measurement) scanMAX Kinase assay panel
Outline: as §1

[8] = molecular target: T8, kinases of the scanMAX Kinase assay panel (Homo sapiens, UniProt Q9HCP0); conditions: CSNK1G1; 1 uM
T8 construct: purchased DiscoverX Co. (contract measurement) scanMAX Kinase assay panel
Outline: as §1

T5 sequence (Q13705 19-512): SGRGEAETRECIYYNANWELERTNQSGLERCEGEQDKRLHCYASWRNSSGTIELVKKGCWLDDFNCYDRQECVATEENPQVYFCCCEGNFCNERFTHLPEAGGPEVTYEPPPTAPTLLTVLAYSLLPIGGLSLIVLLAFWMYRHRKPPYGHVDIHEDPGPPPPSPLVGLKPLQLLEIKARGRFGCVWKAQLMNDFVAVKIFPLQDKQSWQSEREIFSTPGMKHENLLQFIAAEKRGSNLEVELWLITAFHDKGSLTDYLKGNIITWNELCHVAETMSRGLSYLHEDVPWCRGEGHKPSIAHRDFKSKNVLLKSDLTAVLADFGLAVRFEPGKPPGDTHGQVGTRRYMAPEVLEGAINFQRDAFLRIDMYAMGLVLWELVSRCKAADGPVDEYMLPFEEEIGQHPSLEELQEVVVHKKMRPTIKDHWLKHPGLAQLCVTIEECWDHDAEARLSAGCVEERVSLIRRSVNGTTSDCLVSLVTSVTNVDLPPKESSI
T8 sequence (Q9HCP0 whole entry): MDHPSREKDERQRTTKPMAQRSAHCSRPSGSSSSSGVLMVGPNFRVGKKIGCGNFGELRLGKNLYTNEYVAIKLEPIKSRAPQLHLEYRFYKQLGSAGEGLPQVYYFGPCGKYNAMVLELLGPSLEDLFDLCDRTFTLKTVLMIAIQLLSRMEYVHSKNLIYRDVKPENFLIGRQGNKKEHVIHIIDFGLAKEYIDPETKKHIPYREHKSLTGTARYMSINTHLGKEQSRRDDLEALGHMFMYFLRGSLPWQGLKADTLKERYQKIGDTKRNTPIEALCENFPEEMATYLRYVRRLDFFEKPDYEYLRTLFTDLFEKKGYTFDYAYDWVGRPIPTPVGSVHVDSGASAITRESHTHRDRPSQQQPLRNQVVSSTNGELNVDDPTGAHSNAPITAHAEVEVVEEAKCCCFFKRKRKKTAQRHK
T3 sequence (O00506 whole entry): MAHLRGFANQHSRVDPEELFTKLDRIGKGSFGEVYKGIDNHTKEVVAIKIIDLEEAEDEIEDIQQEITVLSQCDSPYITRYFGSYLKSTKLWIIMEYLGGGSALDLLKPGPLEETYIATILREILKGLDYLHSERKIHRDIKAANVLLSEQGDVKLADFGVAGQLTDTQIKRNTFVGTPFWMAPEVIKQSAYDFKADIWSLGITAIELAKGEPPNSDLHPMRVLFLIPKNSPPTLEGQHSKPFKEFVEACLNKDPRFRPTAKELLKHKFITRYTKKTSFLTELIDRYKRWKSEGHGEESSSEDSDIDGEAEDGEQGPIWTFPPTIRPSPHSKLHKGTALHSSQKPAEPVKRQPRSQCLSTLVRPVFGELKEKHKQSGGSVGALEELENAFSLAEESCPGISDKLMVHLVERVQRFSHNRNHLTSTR

| Structure (SMILES) | remaining binding at 1 µM [1] | remaining binding at 1 µM [2] | remaining binding at 1 µM [3] | remaining binding at 1 µM [4] | remaining binding at 1 µM [5] | remaining binding at 1 µM [6] | remaining binding at 1 µM [7] | remaining binding at 1 µM [8] |
| --- | --- | --- | --- | --- | --- | --- | --- | --- |
| CCNc1nc(Nc2ccc(C(=O)N3CCC(N4CCOCC4)CC3)cc2OC)nc2[nH]cc(C(F)(F)F)c12 [Example 104, (4-((4-(ethylamino)-5-(trifluoromethyl)-7H-pyrrolo[2,3-d]pyrimidine-2-yl)amino)-3-methoxyphenyl)(4-morpholinopiperidine-1-yl)methanone] | 93% | 100% | 81% | 100% | 100% | 86% | 0.05% | 73% |
| CC1(Nc2nc(Nc3cnn([C@H]4CCN(C5COC5)C[C@@H]4F)c3Cl)nc3[nH]cc(C#N)c23)CC1 [Example 52, 2-((5-chloro-1-((3S,4S)-3-fluoro-1-(oxetane-3-yl)piperidine-4-yl)-1H-pyrazole-4-yl)amino)((1-methylcyclopropyl)amino)-7H-pyrrolo[2,3-d]pyrimidine-5-carbonitrile] | 0% | 71% | 28% | 47% | 85% | 1% | 0.15% | 6.4% |
| CNc1nc(Nc2ccc(C(=O)N3CCOCC3)cc2OC)nc2[nH]cc(C#N)c12 [Example 1, 2-((2-methoxy-4-(morpholine-4-carbonyl)phenyl)amino)-4-(methylamino)-7H-pyrrolo[2,3-d]pyrimidine-5-carbonitrile] | 96% | 95% | 97% | 98% | 100% | 97% | 4.1% | 95% |
